{"source": "patent US20250033966A1", "about": "“MANUFACTURING METHOD FOR OBTAINING NOVEL CHLORINE OXIDE COMPOSITION FROM DEGRADED HYPOCHLORITE” (HONBUSANKEI CO., LTD., priority 2018, published 2025)", "key": {"[1]": {"assay": "ORP (oxidation-reduction potential) of mixtures versus sodium hypochlorite solution of the same concentration", "type": "physicochemical", "conditions": "for ORP: Only solution"}, "[2]": {"test_system": "overall viable bacteria count", "assay": "Bactericidal effect on green onions, overall viable bacteria count", "type": "cell-based", "conditions": "green onion, immersion 30 minutes"}, "[3]": {"test_system": "E. coli group", "assay": "Bactericidal effect on green onions, E. coli group count", "type": "cell-based", "conditions": "green onion, immersion 30 minutes"}}, "data": [{"compound": "OCl", "note": "[sodium hypochlorite]", "values": [{"measurement": "ORP", "setting": "[1]; 200 ppm", "result": 554, "unit": "mV"}, {"measurement": "ORP", "setting": "[1]; 1000 ppm", "result": 560, "unit": "mV"}, {"measurement": "ORP", "setting": "[1]; Undiluted solution (6%)", "result": 560, "unit": "mV"}, {"measurement": "ORP (oxidation-reduction potential) / oxidizing power upon dilution", "setting": "[1]; diluted", "result": "no change"}, {"measurement": "Overall viable bacteria count", "setting": "[2]; 200 ppm, D + 0", "result": 5.00, "unit": "log CFU"}, {"measurement": "Overall viable bacteria count", "setting": "[2]; 200 ppm, D + 1", "result": 5.72, "unit": "log CFU"}, {"measurement": "Overall viable bacteria count", "setting": "[2]; 1000 ppm, D + 0", "result": 3.57, "unit": "log CFU"}, {"measurement": "Overall viable bacteria count", "setting": "[2]; 1000 ppm, D + 1", "result": 5.61, "unit": "log CFU"}, {"measurement": "E. coli group count", "setting": "[3]; 200 ppm, D + 3", "result": 5.66, "unit": "log CFU"}, {"measurement": "E. coli group count", "setting": "[3]; 1000 ppm, D + 2", "result": 2.64, "unit": "log CFU"}, {"measurement": "E. coli group count", "setting": "[3]; 1000 ppm, D + 3", "result": 4.73, "unit": "log CFU"}]}]}
